Assay results published in publication PMC9848300, “Discovery of novel enasidenib analogues targeting inhibition of mutant isocitrate dehydrogenase 2 as antileukaemic agents” (Journal of Enzyme Inhibition and Medicinal Chemistry, 2023).
Numbering of substitutions follows the chain as printed.

Experiments:
IDH2 R140Q = details: Figure 2; cited from earlier work
IDH1 R132H = details: Figure 2; cited from earlier work
CCRF-CEM = experiment: NCI 60 antitumor screening (single dose / five doses); assay type: cell-based; details: Homo sapiens, CCRF-CEM
HL-60(TB) = experiment: as above; assay type: cell-based; details: Homo sapiens, HL-60
K-562 = experiment: as above; assay type: cell-based; details: Homo sapiens, K562
MOLT-4 = experiment: as above; assay type: cell-based; details: Homo sapiens, MOLT-4
RPMI-8226 = experiment: as above; assay type: cell-based; details: Homo sapiens, RPMI-8226
SR = experiment: as above; assay type: cell-based; details: Homo sapiens, SR
EKVX = experiment: as above; assay type: cell-based; details: Homo sapiens, EKVX
HOP-92 = experiment: as above; assay type: cell-based; details: Homo sapiens, HOP-92
COLO 205 = experiment: as above; assay type: cell-based; details: Homo sapiens, COLO 205
HCT-116 = experiment: as above; assay type: cell-based; details: Homo sapiens, HCT-116
HCT-15 = experiment: as above; assay type: cell-based; details: Homo sapiens, HCT-15
HT29 = experiment: as above; assay type: cell-based, human; details: Homo sapiens, HT-29
SW-620 = experiment: as above; assay type: cell-based, human; details: Homo sapiens, SW-620
SF-295 = experiment: as above; assay type: cell-based; details: Homo sapiens, SF-295
SF-539 = experiment: as above; assay type: cell-based; details: Homo sapiens, SF-539
SNB-75 = experiment: as above; assay type: cell-based; details: Homo sapiens, SNB-75
LOX IMVI = experiment: as above; assay type: cell-based; details: Homo sapiens, LOX IMVI
MALME-3M = experiment: as above; assay type: cell-based; details: Homo sapiens, Malme-3M
MDA-MB-435 = experiment: as above; assay type: cell-based; details: Homo sapiens, MDA-MB-435
SK-MEL-28 = experiment: as above; assay type: cell-based; details: Homo sapiens, SK-MEL-28
SK-MEL-5 = experiment: as above; assay type: cell-based; details: Homo sapiens, SK-MEL-5
UACC-257 = experiment: as above; assay type: cell-based; details: Homo sapiens, UACC-257
UACC-62 = experiment: as above; assay type: cell-based; details: Homo sapiens, UACC-62
IGROV1 = experiment: as above; assay type: cell-based; details: Homo sapiens, IGROV-1
NCI/ADR-RES = experiment: as above; assay type: cell-based; details: Homo sapiens, NCI/ADR-RES
786-0 = experiment: as above; assay type: cell-based; details: Homo sapiens, 786-0
A498 = experiment: as above; assay type: cell-based; details: Homo sapiens, A498
ACHN = experiment: as above; assay type: cell-based; details: Homo sapiens, ACHN
RXF 393 = experiment: as above; assay type: cell-based; details: Homo sapiens, RXF 393
SN 12C = experiment: as above; assay type: cell-based; details: Homo sapiens, SN12C
UO-31 = experiment: as above; assay type: cell-based; details: Homo sapiens, UO-31
DU-145 = experiment: as above; assay type: cell-based; details: Homo sapiens, DU-145
MDA-MB-231/ATCC = experiment: as above; assay type: cell-based; details: Homo sapiens, MDA-MB-231
BT-549 = experiment: as above; assay type: cell-based; details: Homo sapiens, BT-549
T-47D = experiment: as above; assay type: cell-based; details: Homo sapiens, T47D
MDA-MB-468 = experiment: as above; assay type: cell-based; details: Homo sapiens, MDA-MB-468
IDH2^R140Q = molecular target: T1, IDH2^R140Q (Homo sapiens, UniProt P48735, R140Q); experiment: biochemical
T1 sequence (P48735 40-452 R140Q): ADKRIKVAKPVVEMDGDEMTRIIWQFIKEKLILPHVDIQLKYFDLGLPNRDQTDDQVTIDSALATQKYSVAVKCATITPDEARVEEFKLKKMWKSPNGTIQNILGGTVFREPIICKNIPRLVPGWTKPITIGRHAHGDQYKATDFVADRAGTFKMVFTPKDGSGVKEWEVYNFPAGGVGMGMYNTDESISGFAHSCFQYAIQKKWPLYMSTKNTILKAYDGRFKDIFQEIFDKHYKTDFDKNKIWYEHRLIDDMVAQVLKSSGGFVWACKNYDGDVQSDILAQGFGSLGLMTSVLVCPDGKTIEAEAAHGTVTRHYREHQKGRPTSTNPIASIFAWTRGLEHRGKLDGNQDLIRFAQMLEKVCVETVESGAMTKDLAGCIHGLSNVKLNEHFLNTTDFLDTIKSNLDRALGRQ

wild type IDH2 = molecular target: T2, wild type IDH2 (Homo sapiens, UniProt P48735); experiment: IDH2 enzyme inhibition assay (wild type IDH Assay Kit)
T2 sequence (P48735 40-452): T1 sequence (P48735 40-452 R140Q) with Q101R

Cc1ccc(Cl)cc1NC(=O)Nc1cc(NC(=O)c2ccccc2)ccc1N1CCCC1 [CP-17]
IC50 (IDH2 R140Q): 0.041 µM

CC(C)Nc1cc(Nc2cccc(C(F)(F)F)n2)nc(-c2cccc(C(F)(F)F)c2)c1 [III]
IC50 (IDH2 R140Q): 0.074 µM

CC(C)Nc1cc(Nc2cccc(C(F)(F)F)n2)nc(-c2cccc(Cl)c2)c1 [II]
IC50 (IDH2 R140Q): 0.06 µM

C[C@@H](Nc1nc(N[C@H](C)C(F)(F)F)nc(-c2cccc(Cl)n2)n1)C(F)(F)F [Vorasidenib]
IC50 (IDH1 R132H): 0.006 µM

O=C(Nc1cccc(C(F)(F)F)c1)Nc1cc(S(=O)(=O)NC2CC2)ccc1-c1ccsc1 [AGI-6780]
IC50 (IDH2 R140Q): 0.023 µM

CC(C)Nc1cc(Nc2cc(C(F)(F)F)ccn2)nc(-c2ccccc2)c1 [I]
IC50 (IDH2 R140Q): 0.055 µM

CC(C)(O)CNc1nc(Nc2ccnc(C(F)(F)F)c2)nc(-c2cccc(C(F)(F)F)n2)n1 [Enasidenib]
GI50 (CCRF-CEM): 19.9 µM
GI50 (HL-60(TB)): 19.9 µM
GI50 (K-562): 31.6 µM
GI50 (MOLT-4): 12.6 µM
GI50 (RPMI-8226): 19.9 µM
GI50 (SR): 19.9 µM
GI50 (EKVX): 19.9 µM
GI50 (HOP-92): 25.1 µM
GI50 (COLO 205): 19.9 µM
GI50 (HCT-116): 15.8 µM
GI50 (HCT-15): 19.9 µM
GI50 (HT29): 15.8 µM
GI50 (SW-620): 25.1 µM
GI50 (SF-295): 15.8 µM
GI50 (SF-539): 15.8 µM
GI50 (SNB-75): 15.8 µM
GI50 (LOX IMVI): 15.8 µM
GI50 (MALME-3M): 19.9 µM
GI50 (MDA-MB-435): 15.8 µM
GI50 (SK-MEL-28): 15.8 µM
GI50 (SK-MEL-5): 12.6 µM
GI50 (UACC-257): 19.9 µM
GI50 (UACC-62): 15.8 µM
GI50 (IGROV1): 31.6 µM
GI50 (NCI/ADR-RES): 15.8 µM
GI50 (786-0): 19.9 µM
GI50 (A498): 15.8 µM
GI50 (ACHN): 25.1 µM
GI50 (RXF 393): 19.9 µM
GI50 (SN 12C): 19.9 µM
GI50 (UO-31): 19.9 µM
GI50 (DU-145): 19.9 µM
GI50 (MDA-MB-231/ATCC): 19.9 µM
GI50 (BT-549): 15.8 µM
GI50 (T-47D): 15.8 µM
GI50 (MDA-MB-468): 19.9 µM
IC50 (IDH2 R140Q): 0.1 µM
IC50 (IDH2^R140Q): 0.0755 ± 0.00369 µM
IC50 (wild type IDH2): 2.33 ± 0.09 µM

CC(C)(C)ONc1nc(Nc2ccnc(C(F)(F)F)c2)nc(-c2cccc(C(F)(F)F)n2)n1 [TQ05310]
IC50 (IDH2 R140Q): 0.137 µM
